{"source": "paper PMC11673756", "about": "“Urolithin A Protects Hepatocytes from Palmitic Acid-Induced ER Stress by Regulating Calcium Homeostasis in the MAM” (Biomolecules, 2024)", "biological_target": "T1, CCDC47 (Coiled-Coil Domain Containing 47) (Homo sapiens, UniProt Q96A33)", "T1 construct": "endogenous CCDC47 in HepG2 cells", "T1 sequence (Q96A33 21-483)": "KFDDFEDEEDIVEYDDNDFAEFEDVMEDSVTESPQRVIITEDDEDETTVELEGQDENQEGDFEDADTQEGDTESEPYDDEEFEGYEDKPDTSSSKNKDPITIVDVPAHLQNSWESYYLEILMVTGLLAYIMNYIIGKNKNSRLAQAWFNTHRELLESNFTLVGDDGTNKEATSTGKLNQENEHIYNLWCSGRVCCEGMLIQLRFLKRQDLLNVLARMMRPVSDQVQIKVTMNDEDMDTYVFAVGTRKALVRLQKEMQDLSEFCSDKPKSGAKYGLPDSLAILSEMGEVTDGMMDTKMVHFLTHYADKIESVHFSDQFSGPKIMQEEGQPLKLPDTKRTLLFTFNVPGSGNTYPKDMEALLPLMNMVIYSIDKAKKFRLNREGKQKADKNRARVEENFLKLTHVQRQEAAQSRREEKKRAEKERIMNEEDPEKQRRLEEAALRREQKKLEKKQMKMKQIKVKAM", "test": "isothermal CETSA at […] °C", "assay_type": "cell-based", "note": "pEC50: −log10 of the molar value."}
{"smiles": "O=c1oc2cc(O)ccc2c2ccc(O)cc12", "note": "[UA, Urolithin A]", "values": [{"measurement": "pEC50", "result": "~4.42"}]}
